According to US20120070392A1, “COMPOSITION FOR INHIBITING ERYTHEMA CAUSED BY ULTRAVIOLET RADIATION CONTAINING A DIPEPTIDE AS ACTIVE INGREDIENT” (priority 2009, published 2012):

What follows are compounds tested on PGE2 production (assay: Inhibition of UVB-induced PGE2 production in cultured human keratinocytes (PGE2 assay kit, calibrated with MTT absorbance)). Details: not given.
Format: cell-based
Method: Human keratinocytes were seeded at a density of 1×10^5 cells/well to 6-well plates containing 2 mL of KGM(keratinocyte growth medium, Clonetics, San Diego, Calif., USA) per well and cultured overnight. Then, the medium was replaced with KBM(keratinocyte basal medium) supplemented with 0.1% BSA(bovine serum albumin) and the cells were cultured for an additional 24 hours. Subsequently, the cells were pre-treated for an additional 24 hours with 2 mL of the same medium containing 10 μg/ml of each of the dipeptides listed in Table 1. […] The pre-treated medium was transferred to new 24 well plates and 1 mL of DPBS(Dulbecco's phosphate buffered saline) was added to the cells in each well. During UV irradiation, the transferred medium was stored in a cell incubator. […] At this time, the control was covered with aluminum foil. After the removal of DPBS, the transferred medium was returned to each well. The cells were further cultured for 24 hours, after which 1 mL of the medium was transferred to microcentrifuge tubes. […] The supernatants were then removed and the formazan crystals were solubilized in 1 ml of DMSO(dimethylsulfoxide). One hundred μL of the solution was transferred to each well of 96-well plates and an optical density was determined at 540 nm using an ELISA(enzyme-linked immunosorbent assay) reader. […] The concentration of PGE2 was determined using a PGE2 Assay Kit(KGE004, R&D Systems, Inc., Minneapolis, Minn., USA) according to the manufacturer's instruction. […] After removal of the reaction, the wells were washed five times with 400 μL of wash buffer. To each well was added 200 μL of a substrate solution, followed by incubation for 20 30 min. The reaction was terminated with 50 μL of a stop solution per well before determining absorbance at 450 nm on an ELISA reader. The PGE2 concentration of each sample was calculated from the standard graph and calibrated with the absorbance obtained in the MTT assay to determine their inhibitory activity against PGE2 production.

Row | Compound | % Inhibition against PGE2 Production [%]
1 | methionine-tyrosine [MY] | 91.7
2 | tyrosine-arginine | 83.7
3 | tyrosine-tyrosine [YY] | 83.5
4 | proline-histidine [PH] | 74.7
5 | valine-valine [VV] | 89.9
6 | proline-lysine [PK] | 96.3
7 | aspartic acid-asparagine [DN] | 85.6
8 | proline-arginine | 76.4
9 | proline-isoleucine [PI] | 87.2
10 | proline-asparagine [PN] | 32.7
11 | valine-histidine [VH] | 47.6
12 | alanine-asparagine | 58.8
13 | aspartic acid-proline [DP] | 89.3
14 | arginine-proline [RP] | 88.7
15 | NCC(=O)O.N[C@@H](CCC(=O)O)C(=O)O [EG, glutamic acid-glycine] | 90.9
16 | serine-proline [SP] | 94.7
17 | asparagine-valine [NV] | 80.4
18 | tyrosine-lysine [YK] | 89.9
19 | serine-asparagine [SN] | 49.9
20 | valine-tyrosine [VY] | 83.2
21 | methionine-tryptophan [MW] | 76.4
22 | asparagine-cysteine [NC] | 83.1

Row | Compound | % Inhibition against PGE2 Production [%]
23 | proline-aspartic acid [PD] | 84.3
24 | serine-valine [SV] | 31.2
25 | glutamine-histidine [QH] | 14.8
26 | glutamic acid-methionine [EM] | 58.4
27 | NCC(=O)O.NCCCC[C@H](N)C(=O)O [GK, glycine-lysine] | 87.0
28 | aspartic acid-methionine [DM] | 63.1
29 | alanine-histidine [AH] | 64.7
30 | histidine-serine [HS] | 53.2
31 | alanine-tyrosine [AY] | 31.8
32 | proline-serine [PS] | 71.3
33 | isoleucine-histidine [IH] | 27.1
34 | methionine-glutamine [MQ] | 87.5
35 | asparagine-serine [NS] | 31.9
36 | tyrosine-phenylalanine [YF] | 12.7
37 | proline-threonine [PT] | 21.7
38 | arginine-methionine [RM] | 84.7
39 | lysine-methionine [KM] | 84.0
40 | serine-tyrosine [SY] | 91.5
41 | glutamic acid-tyrosine [EY] | 75.9
42 | histidine-proline [HP] | 26.3
43 | histidine-leucine [HL] | 36.3

Same assay, conditions: 10 μg/ml dipeptide, 24 h pre-treatment, human keratinocytes, UVB 100 mJ/cm^2, medium assayed 24 h after irradiation; 0% or lower expressed as zero; 10% or more regarded as effective

Row | Compound | % Inhibition against PGE2 Production [%]
44 | serine-alanine [SA] | 51.0
45 | proline-alanine [PA] | 76.8
46 | asparagine-alanine [NA] | 42.0
47 | valine-alanine | 64.7
48 | glycine-alanine [GA] | 17.6
49 | valine-praline [VP] | 50.5
50 | histidine-histidine [HH] | 79.8
51 | histidine-alanine [HA] | 44.1

Same assay, conditions: 10 μg/ml dipeptide, 24 h pre-treatment, human keratinocytes, UVB 100 mJ/cm^2, medium assayed 24 h after irradiation; […]; 10% or more regarded as effective

Row | Compound | % Inhibition against PGE2 Production [%]
52 | threonine-aspartic acid [TD] | 77.6
53 | threonine-isoleucine [TI] | 36.3
54 | serine-aspartic acid [SD] | 58.4
55 | glutamine-tryptophan [QW] | 42.8
56 | aspartic acid-glutamine [DQ] | 52.4
57 | leucine-arginine [LR] | 52.0
58 | glutamine-serine [QS] | 28.2
59 | glutamic acid-glutamine [EQ] | 79.6
60 | cysteine-tryptophan [CW] | 71.0
61 | aspartic acid-alanine [DA] | 94.1
62 | asparagine-arginine [NR] | 72.8
63 | threonine-glutamine [TQ] | 51.2
64 | tryptophan-tryptophan [WW] | 34.8
65 | serine-arginine [SR] | 52.9
66 | cysteine-serine [CS] | 53.1
67 | NC(=O)CC(N)C(=O)O (stereo not shown) [NN, asparagine-asparagine] | 48.3
68 | arginine-aspartic acid [RD] | 24.1
69 | threonine-phenylalanine [TF] | 77.3
70 | valine-phenylalanine [VF] | 12.2
71 | serine-serine [SS] | 93.8
72 | glutamic acid-leucine [EL] | 56.2

Row | Compound | % Inhibition against PGE2 Production [%]
73 | leucine-cysteine [LC] | 33.3
74 | valine-arginine [VR] | 52.5
75 | serine-isoleucine [SI] | 50.3
76 | lysine-aspartic acid [KD] | 90.3
77 | serine-cysteine [SC] | 77.7
78 | tryptophan-glutamic acid [WE] | 79.9
79 | asparagine-glutamic acid | 14.5
80 | tryptophan-cysteine [WC] | 18.3
81 | leucine-lysine [LK] | 82.8
82 | glutamic acid-valine [EV] | 86.4
83 | alanine-glutamic acid [AE] | 74.6
84 | leucine-threonine [LT] | 53.4
85 | glutamine-phenylalanine [QF] | 19.0
86 | tryptophan-glutamine [WQ] | 88.7
87 | tryptophan-serine [WS] | 89.0
88 | tryptophan-tyrosine [WY] | 55.6
89 | cysteine-glutamine [CQ] | 93.9
90 | arginine-threonine [RT] | 27.5
91 | aspartic acid-tryptophan [DW] | 67.3
92 | isoleucine-glutamine [IQ] | 72.0
93 | aspartic acid-aspartic acid [DD] | 64.2

Row | Compound | % Inhibition against PGE2 Production [%]
94 | leucine-glutamic acid | 92.8
95 | alanine-cysteine [AC] | 70.8
96 | valine-glutamine [VQ] | 71.2
97 | glutamine-valine [QV] | 59.7
98 | tryptophan-leucine [WL] | 90.2
99 | glutamic acid-alanine [EA] | 55.3
100 | tryptophan-histidine [WH] | 96.1
101 | leucine-asparagine [LN] | 78.8
102 | threonine-glutamic acid [TE] | 82.5
103 | tryptophan-arginine [WR] | 83.7
104 | isoleucine-valine [IV] | 70.9
105 | phenylalanine-asparagine [FN] | 81.4
106 | phenylalanine-leucine [FL] | 29.2
107 | isoleucine-lysine [IK] | 71.3
108 | aspartic acid-valine [DV] | 30.7
109 | valine-leucine [VL] | 47.0
110 | leucine-phenylalanine [LF] | 90.2
111 | glutamine-lysine [QK] | 25.9
112 | tryptophan-valine [WV] | 79.6
